Data taken from paper PMC4171097, “Severe MgADP Inhibition of Bacillus subtilis F1-ATPase Is Not Due to the Absence of Nucleotide Binding to the Noncatalytic Nucleotide Binding Sites” (PLoS ONE, 2014).

Biological target: T1, α3β3γ complex of BF1 (F1-ATPase from Bacillus subtilis) (Bacillus subtilis, UniProt P37808+P37809, P37808:R354W)
T1 construct: gene atpA; recombinant alpha3beta3gamma subcomplex of F1-ATPase (no delta, no epsilon), from plasmid pET21-BF1; with ATP synthase gamma chain
Assay: tryptophan fluorescence quenching titration (ex […] nm, em […] nm), simple binding equation
Settings: read-out: apparent Kd

T1 sequence (P37809 whole entry): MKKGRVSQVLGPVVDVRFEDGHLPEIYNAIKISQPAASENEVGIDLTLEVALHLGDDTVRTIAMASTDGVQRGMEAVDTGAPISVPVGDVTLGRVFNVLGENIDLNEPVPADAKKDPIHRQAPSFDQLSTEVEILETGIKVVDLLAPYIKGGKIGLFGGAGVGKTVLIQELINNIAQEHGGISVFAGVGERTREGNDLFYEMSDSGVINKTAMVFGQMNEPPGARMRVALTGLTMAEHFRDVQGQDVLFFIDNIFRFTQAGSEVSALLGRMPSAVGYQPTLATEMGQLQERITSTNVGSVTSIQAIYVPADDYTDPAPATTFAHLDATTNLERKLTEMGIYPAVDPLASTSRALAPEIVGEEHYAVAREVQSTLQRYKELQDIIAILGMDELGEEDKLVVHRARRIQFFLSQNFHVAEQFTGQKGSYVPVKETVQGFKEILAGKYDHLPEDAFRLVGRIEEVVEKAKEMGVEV
T1 sequence (P37810 whole entry, further chain): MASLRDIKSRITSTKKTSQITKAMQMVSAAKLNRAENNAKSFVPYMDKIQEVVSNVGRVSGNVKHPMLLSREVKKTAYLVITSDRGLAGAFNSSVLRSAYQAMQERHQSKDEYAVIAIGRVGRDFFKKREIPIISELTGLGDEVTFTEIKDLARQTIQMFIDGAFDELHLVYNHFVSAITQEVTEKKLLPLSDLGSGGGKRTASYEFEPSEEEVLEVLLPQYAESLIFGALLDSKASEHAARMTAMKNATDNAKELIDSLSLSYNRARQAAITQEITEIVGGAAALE
T1 sequence (P37808 2-502 R354W): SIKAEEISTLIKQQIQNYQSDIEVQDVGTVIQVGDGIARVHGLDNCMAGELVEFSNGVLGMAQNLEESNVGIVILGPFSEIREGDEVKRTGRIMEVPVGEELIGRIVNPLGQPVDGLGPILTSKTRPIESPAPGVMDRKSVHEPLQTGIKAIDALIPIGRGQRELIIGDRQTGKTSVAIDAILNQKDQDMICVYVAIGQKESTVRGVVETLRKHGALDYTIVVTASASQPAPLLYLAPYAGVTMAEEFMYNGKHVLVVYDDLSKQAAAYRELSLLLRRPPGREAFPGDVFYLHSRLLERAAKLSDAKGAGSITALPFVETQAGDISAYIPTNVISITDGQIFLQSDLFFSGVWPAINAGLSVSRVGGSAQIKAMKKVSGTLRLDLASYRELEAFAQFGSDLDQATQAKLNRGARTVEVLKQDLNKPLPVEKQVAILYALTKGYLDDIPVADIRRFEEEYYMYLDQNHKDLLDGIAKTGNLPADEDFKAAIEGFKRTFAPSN

Nc1ncnc2c1ncn2[C@@H]1O[C@H](COP(=O)(O)OP(=O)(O)OP(=O)(O)O)[C@@H](O)[C@H]1O [ATP]
Kd: 34.4 ± 2.9 µM
